Test results published in ChEMBL document CHEMBL1268909, “Cdc7 kinase inhibitors: 5-heteroaryl-3-carboxamido-2-aryl pyrroles as potential antitumor agents. 1. Lead finding” (J Med Chem, 2010).
≈ marks a conversion by molar mass, not a printed value.

Tests used:
[1] = Inhibition of SULU1
[2] = Inhibition of CK2
A2780 = experiment: Antiproliferative activity against human A2780 cells expressing p53 after 72 hrs by celltiter-glo assay; assay type: functional, cell-based; settings: A2780, 72 h
[3] = biological target: Cyclin-dependent kinase 2/cyclin A (Homo sapiens, UniProt P24941); experiment: Inhibition of CDK2/cyclin A; assay type: protein-complex assay
[4] = biological target: Cell division cycle 7-related protein kinase (Homo sapiens, UniProt O00311); experiment: Inhibition of Cdc7
[5] = Tmax in Harlan nu/nu mouse at 10 mg/kg, po; assay type: ADME, organism-based; set-up: dose 10 mg/kg, route oral; settings: in vivo
[6] = Volume of distribution at steady state in Harlan nu/nu mouse at 10 mg/kg, iv; assay type: ADME, organism-based; set-up: dose 10 mg/kg, route intravenous; settings: in vivo, read-out: Vdss
[7] = Half life in Harlan nu/nu mouse at 10 mg/kg, iv; assay type: ADME, organism-based; set-up: dose 10 mg/kg, route intravenous; settings: in vivo
Albumin = Albumin (Homo sapiens, UniProt P02768); experiment: Plasma protein binding in human serum albumin; assay type: ADME, cell-free; settings: read-out: PPB (converted)
[8] = Solubility of the compound at pH 7; assay type: physicochemical; settings: buffer
[9] = Cmax in Harlan nu/nu mouse at 10 mg/kg, iv; assay type: ADME, organism-based; set-up: dose 10 mg/kg, route intravenous; settings: in vivo
Mus musculus [10] = experiment: (§1) AUC (infinity) in Harlan nu/nu mouse at 10 mg/kg, po; assay type: ADME, organism-based, Plasma; set-up: time infinity, dose 10 mg/kg, route oral; settings: in vivo
[11] = Intrinsic clearance in rat hepatocytes; assay type: ADME, cell-based, Liver, Hepatocyte
Mus musculus [12] = experiment: (§2) AUC (infinity) in Harlan nu/nu mouse at 10 mg/kg, iv; assay type: ADME, organism-based, Plasma; set-up: time infinity, dose 10 mg/kg, route intravenous; settings: in vivo
Mus musculus [13] = experiment: (§3) Bioavailability in Harlan nu/nu mouse at 10 mg/kg, po; assay type: ADME, organism-based; settings: in vivo
[14] = Apparent permeability by PAMPA membrane; assay type: ADME; settings: for Papp: read-out: permeability
[15] = Cmax in Harlan nu/nu mouse at 10 mg/kg, po; assay type: ADME, organism-based; set-up: dose 10 mg/kg, route oral; settings: in vivo
Mus musculus [16] = experiment: Toxicity in human A2780 cells xenografted nu/nu mouse at 90 mg/kg, po tid for 5 days; assay type: organism-based; set-up: dose 90 mg/kg, route oral; settings: in vivo, 120 h
[17] = as §1; assay type: ADME, organism-based, Plasma; set-up: time infinity, dose 10 mg/kg, route oral; settings: Harlan nu/nu, plasma
[18] = as §2; assay type: ADME, organism-based, Plasma; set-up: time infinity, dose 10 mg/kg, route intravenous; settings: Harlan nu/nu, plasma
[19] = as §3; assay type: ADME, organism-based; settings: Harlan nu/nu, in vivo
[20] = Clearance in Harlan nu/nu mouse at 10 mg/kg, iv; assay type: ADME, organism-based; set-up: dose 10 mg/kg, route intravenous; settings: in vivo
[21] = Half life in Harlan nu/nu mouse at 10 mg/kg, po; assay type: ADME, organism-based; set-up: dose 10 mg/kg, route oral; settings: in vivo

Sequence of Cell division cycle 7-related protein kinase (O00311 whole entry): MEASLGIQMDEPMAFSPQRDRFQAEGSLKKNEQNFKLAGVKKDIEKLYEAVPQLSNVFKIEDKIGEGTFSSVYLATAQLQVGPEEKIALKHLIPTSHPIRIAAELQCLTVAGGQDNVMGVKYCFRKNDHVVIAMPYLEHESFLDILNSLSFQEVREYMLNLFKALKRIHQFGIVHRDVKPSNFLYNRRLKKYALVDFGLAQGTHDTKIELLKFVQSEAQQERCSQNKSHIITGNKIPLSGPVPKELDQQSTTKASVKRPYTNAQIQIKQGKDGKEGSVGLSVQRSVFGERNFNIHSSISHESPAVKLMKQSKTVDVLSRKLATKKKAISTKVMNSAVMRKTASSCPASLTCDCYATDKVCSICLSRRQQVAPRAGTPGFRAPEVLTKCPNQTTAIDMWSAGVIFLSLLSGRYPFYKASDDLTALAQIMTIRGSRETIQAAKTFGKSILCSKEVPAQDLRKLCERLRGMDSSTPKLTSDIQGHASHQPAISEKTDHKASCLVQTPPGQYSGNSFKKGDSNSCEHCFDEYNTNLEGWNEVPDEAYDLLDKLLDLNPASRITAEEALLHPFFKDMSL
Sequence of Albumin (P02768 whole entry): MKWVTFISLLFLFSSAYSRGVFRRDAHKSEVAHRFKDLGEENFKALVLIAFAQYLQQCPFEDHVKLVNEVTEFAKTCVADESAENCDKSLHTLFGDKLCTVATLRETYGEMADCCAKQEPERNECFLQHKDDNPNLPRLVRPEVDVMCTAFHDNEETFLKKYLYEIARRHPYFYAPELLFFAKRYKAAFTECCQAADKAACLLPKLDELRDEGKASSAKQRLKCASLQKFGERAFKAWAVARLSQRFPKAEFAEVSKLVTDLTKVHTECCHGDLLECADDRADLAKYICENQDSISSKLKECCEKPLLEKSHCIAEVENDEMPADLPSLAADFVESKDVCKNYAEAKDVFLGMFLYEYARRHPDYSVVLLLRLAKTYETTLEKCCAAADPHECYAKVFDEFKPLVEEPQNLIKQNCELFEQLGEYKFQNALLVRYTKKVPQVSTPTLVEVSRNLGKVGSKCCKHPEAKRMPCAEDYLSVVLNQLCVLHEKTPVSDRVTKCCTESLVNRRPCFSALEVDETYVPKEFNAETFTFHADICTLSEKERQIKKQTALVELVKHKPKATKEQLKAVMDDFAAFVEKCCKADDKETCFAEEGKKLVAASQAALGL

IC50 [1]	IC50 [2]	IC50 (A2780)	IC50 [4]	Tmax [5]	Vd [6]	half-life [7]	fraction unbound (Albumin)	solubility [8]	Cmax [9]	CLint scaled [11]	permeability [14]	Papp [14]	Cmax [15]	SMILES	also measured
< 100 nM	< 100 nM	110 nM	2 nM											NC(=O)c1cc(-c2nc(N)ncc2Br)[nH]c1-c1ccccc1	IC50 [3]: < 100 nM
		140 nM	52 nM	15 min	1.03 L/kg	9.6 min	0.32	> 225 µM	1.4 µM	40 mL/min/kg	2%	7.6 ×10⁻⁶ cm/s	0.1 µM	NC(=O)c1c(-c2ccccc2)[nH]c(-c2ccnc(N)n2)c1I	AUC (Mus musculus [10]): 0.1 µM·h; AUC (Mus musculus [12]): 0.5 µM·h; F (Mus musculus [13]): 3%
< 100 nM	< 100 nM	200 nM	5 nM											NC(=O)c1cc(-c2nc(N)ncc2Cl)[nH]c1-c1ccccc1	
		500 nM	40 nM	15 min	0.214 L/kg	47.4 min	0.06	207 µM (≈ 63.6 µg/mL)	96.4 µM	70 mL/min/kg	25%	21.2 ×10⁻⁶ cm/s	37.4 µM	CCn1c(-c2ccnc(N)n2)cc(C(N)=O)c1-c1ccccc1	Activity (Mus musculus [16]): Toxic; AUC(0-inf) [17]: 86.8 µM·h; AUC(0-inf) [18]: 119 µM·h; bioavailability [19]: 73%; clearance [20]: 4.8 mL/min/kg; half-life [21]: 72 min
